Data: BigSolDB 2.1

O=C(Nc1c(Cl)cncc1Cl)c1ccc(OC(F)F)c(OCC2CC2)c1
solubility (mole fraction)
Details	278.2 K	283.2 K	288.2 K	293.2 K	298.2 K	303.2 K	308.2 K	313.2 K	318.2 K	323.2 K
in 2-butanone	0.000102	0.00013	0.000165	0.000204	0.000264	0.000351	0.000448	0.000586	0.00081	0.00118
in 2-pentanone	7.4e-05	9.8e-05	0.000114	0.00016	0.000219	0.000311	0.000402	0.000551	0.000756	0.00101
in DMF	4e-06	6e-06	8e-06	1.3e-05	1.9e-05	3.1e-05	4.3e-05	6.1e-05	8.6e-05	0.000119
in DMSO	3.3e-05	4.2e-05	6.3e-05	9e-05	0.000132	0.000171	0.000236	0.00033	0.000457	0.000629
in ethanol	6.5e-05	8.8e-05	0.000106	0.00015	0.000208	0.000297	0.000387	0.000533	0.000734	0.000989
in n-butanol	4.5e-05	6.2e-05	7.8e-05	0.000112	0.000156	0.000226	0.000296	0.000411	0.00057	0.000782
in n-propanol	4.9e-05	7.6e-05	9.4e-05	0.000131	0.000175	0.000244	0.000328	0.000455	0.000625	0.000868

Cc1nnc(C(C)C)n1C1C[C@H]2CC[C@@H](C1)N2CC[C@H](NC(=O)C1CCC(F)(F)CC1)c1ccccc1 (stereo not given in full)
solubility (mole fraction)
Details	278.2 K	283.2 K	288.2 K	293.2 K	298.2 K	303.2 K	308.2 K	313.2 K	318.2 K	323.2 K
in 2-butanone	0.000179	0.000262	0.000349	0.000491	0.000715	0.00102	0.00137	0.00193	0.00257	0.00351
in 2-pentanone	0.000152	0.000224	0.000296	0.000418	0.000607	0.00087	0.00119	0.00168	0.00229	0.00316
in DMF	3.5e-05	5.6e-05	7.6e-05	0.000112	0.000168	0.000244	0.000341	0.000507	0.000689	0.00101
in DMSO	1.4e-05	2.4e-05	3.7e-05	5.6e-05	8.4e-05	0.000128	0.000173	0.000263	0.000358	0.00053
in ethanol	0.000281	0.000404	0.00052	0.000716	0.00102	0.00144	0.00189	0.00263	0.00344	0.00461
in n-butanol	0.0002	0.000293	0.000383	0.000533	0.000778	0.00112	0.0015	0.00212	0.00282	0.00387
in n-propanol	0.00021	0.00031	0.00042	0.000609	0.00088	0.00124	0.00167	0.00235	0.00311	0.00421
in water	6e-06	9e-06	1.2e-05	1.7e-05	2.5e-05	3.6e-05	4.8e-05	6.9e-05	9.2e-05	0.000129
